In brackets after ≈: the same amount, converted by molar mass.
How the values were obtained:
Assay type in all cases: functional
Staphylococcus aureus = assay: Antimicrobial activity against Staphylococcus aureus ATCC 25923 after18 to 20 hrs by broth dilution method
[1] = system: Staphylococcus epidermidis; assay: Antimicrobial activity against Staphylococcus epidermidis ATCC 14990 after18 to 20 hrs by broth dilution method
Enterococcus faecalis = assay: Antimicrobial activity against Enterococcus faecalis ATCC 29212 after18 to 20 hrs by broth dilution method
Bacillus cereus = assay: Antimicrobial activity against Bacillus cereus ATCC 13061 after18 to 20 hrs by broth dilution method
Escherichia coli = assay: Antimicrobial activity against Escherichia coli ATCC 25922 after18 to 20 hrs by broth dilution method
Enterobacter cloacae = assay: Antimicrobial activity against Enterobacter cloacae ATCC 49141 after18 to 20 hrs by broth dilution method
Citrobacter freundii = assay: Antimicrobial activity against Citrobacter freundii ATCC 8090 after18 to 20 hrs by broth dilution method
Acinetobacter baumannii = assay: Antimicrobial activity against Acinetobacter baumannii ATCC 19606 after18 to 20 hrs by broth dilution method
Pseudomonas aeruginosa = assay: Antimicrobial activity against Pseudomonas aeruginosa ATCC 27853 after18 to 20 hrs by broth dilution method
Candida albicans = assay: Antimicrobial activity against Candida albicans ATCC 90028 after 48 hrs by broth dilution method; conditions: ATCC 90028, 48 h

Compound | MIC (Staphylococcus aureus) [µg/mL] | MIC [1] [µg/mL] | MIC (Enterococcus faecalis) [µg/mL] | MIC (Bacillus cereus) [µg/mL] | MIC (Escherichia coli) [µg/mL] | MIC (Enterobacter cloacae) [µg/mL] | MIC (Citrobacter freundii) [µg/mL] | MIC (Acinetobacter baumannii) [µg/mL] | MIC (Pseudomonas aeruginosa) [µg/mL] | MIC (Candida albicans) [µg/mL]
O=S(=O)(c1ccccc1)c1ccc(-c2nnc3sc(-c4ccc(Cl)cc4)nn23)cc1 | 256 (≈ 565 µM) | 512 (≈ 1130 µM) | 512 (≈ 1130 µM) | 1020 (≈ 2260 µM) | 512 (≈ 1130 µM) | 512 (≈ 1130 µM) | 512 (≈ 1130 µM) | 512 (≈ 1130 µM) | 512 (≈ 1130 µM) | 512 (≈ 1130 µM)
O=S(=O)(c1ccccc1)c1ccc(-c2nnc3sc(Nc4ccc(Br)cc4)nn23)cc1 | 1020 (≈ 2000 µM) | 512 (≈ 999 µM) | 1020 (≈ 2000 µM) | 1020 (≈ 2000 µM) | 256 (≈ 500 µM) | 512 (≈ 999 µM) | 1020 (≈ 2000 µM) | 512 (≈ 999 µM) | 512 (≈ 999 µM) | 1020 (≈ 2000 µM)
COc1ccc(Nc2nn3c(-c4ccc(S(=O)(=O)c5ccccc5)cc4)nnc3s2)cc1 | 1020 (≈ 2210 µM) | 128 (≈ 276 µM) | 64 (≈ 138 µM) | 256 (≈ 552 µM) | 256 (≈ 552 µM) | 256 (≈ 552 µM) | 256 (≈ 552 µM) | 128 (≈ 276 µM) | 256 (≈ 552 µM) | 256 (≈ 552 µM)
Cc1ccc(Nc2nn3c(-c4ccc(S(=O)(=O)c5ccccc5)cc4)nnc3s2)cc1 | 1020 (≈ 2290 µM) | 512 (≈ 1140 µM) | 512 (≈ 1140 µM) | 1020 (≈ 2290 µM) | 256 (≈ 572 µM) | 512 (≈ 1140 µM) | 1020 (≈ 2290 µM) | 128 (≈ 286 µM) | 512 (≈ 1140 µM) | 256 (≈ 572 µM)
O=S(=O)(c1ccc(Br)cc1)c1ccc(-c2nnc3sc(Nc4ccc(Br)cc4)nn23)cc1 | 512 (≈ 866 µM) | 512 (≈ 866 µM) | 128 (≈ 216 µM) | 1020 (≈ 1730 µM) | 128 (≈ 216 µM) | 512 (≈ 866 µM) | 1020 (≈ 1730 µM) | 512 (≈ 866 µM) | 512 (≈ 866 µM) | 128 (≈ 216 µM)
COc1ccc(Nc2nn3c(-c4ccc(S(=O)(=O)c5ccc(Br)cc5)cc4)nnc3s2)cc1 | 512 (≈ 944 µM) | 128 (≈ 236 µM) | 128 (≈ 236 µM) | 1020 (≈ 1890 µM) | 256 (≈ 472 µM) | 256 (≈ 472 µM) | 256 (≈ 472 µM) | 128 (≈ 236 µM) | 256 (≈ 472 µM) | 128 (≈ 236 µM)
Nc1ccc(-c2nn3c(-c4ccc(S(=O)(=O)c5ccccc5)cc4)nnc3s2)cc1 | 512 (≈ 1180 µM) | 64 (≈ 148 µM) | 128 (≈ 295 µM) | 256 (≈ 591 µM) | 256 (≈ 591 µM) | 256 (≈ 591 µM) | 256 (≈ 591 µM) | 128 (≈ 295 µM) | 256 (≈ 591 µM) | 256 (≈ 591 µM)
Cc1ccc(Nc2nn3c(-c4ccc(S(=O)(=O)c5ccc(Br)cc5)cc4)nnc3s2)cc1 | 512 (≈ 973 µM) | 1020 (≈ 1950 µM) | 512 (≈ 973 µM) | 1020 (≈ 1950 µM) | 256 (≈ 486 µM) | 512 (≈ 973 µM) | 1020 (≈ 1950 µM) | 1020 (≈ 1950 µM) | 512 (≈ 973 µM) | 128 (≈ 243 µM)
O=S(=O)(c1ccccc1)c1ccc(-c2nnc3sc(-c4ccc(Br)cc4)nn23)cc1 | 512 (≈ 1030 µM) | 1020 (≈ 2060 µM) | 1020 (≈ 2060 µM) | 1020 (≈ 2060 µM) | 512 (≈ 1030 µM) | 512 (≈ 1030 µM) | 1020 (≈ 2060 µM) | 1020 (≈ 2060 µM) | 512 (≈ 1030 µM) | 1020 (≈ 2060 µM)
COc1ccc(-c2nn3c(-c4ccc(S(=O)(=O)c5ccccc5)cc4)nnc3s2)cc1 | 256 (≈ 571 µM) | 512 (≈ 1140 µM) | 512 (≈ 1140 µM) | 512 (≈ 1140 µM) | 512 (≈ 1140 µM) | 512 (≈ 1140 µM) | 512 (≈ 1140 µM) | 512 (≈ 1140 µM) | 256 (≈ 571 µM) | 512 (≈ 1140 µM)
NCc1ccc(-c2nn3c(-c4ccc(S(=O)(=O)c5ccccc5)cc4)nnc3s2)cc1 | 512 (≈ 1140 µM) | 512 (≈ 1140 µM) | 512 (≈ 1140 µM) | 1020 (≈ 2290 µM) | 256 (≈ 572 µM) | 512 (≈ 1140 µM) | 1020 (≈ 2290 µM) | 1020 (≈ 2290 µM) | 256 (≈ 572 µM) | 512 (≈ 1140 µM)
O=S(=O)(c1ccccc1)c1ccc(-c2nnc3sc(-c4cc(O)c(O)c(O)c4)nn23)cc1 | 512 (≈ 1100 µM) | 512 (≈ 1100 µM) | 32 (≈ 68.6 µM) | 256 (≈ 549 µM) | 256 (≈ 549 µM) | 512 (≈ 1100 µM) | 1020 (≈ 2200 µM) | 1020 (≈ 2200 µM) | 128 (≈ 274 µM) | 512 (≈ 1100 µM)

From ChEMBL document CHEMBL1629422, “Synthesis and antimicrobial evaluation of some fused heterocyclic [1,2,4]triazolo[3,4-b][1,3,4]thiadiazole derivatives” (2010)
